Reference: ChEMBL document CHEMBL1743141, “Membrane transporters in drug development” (Nat Rev Drug Discov, 2010)

What was measured:
Format in all cases: ADME
[1] = biological target: T1, Broad substrate specificity ATP-binding cassette transporter ABCG2 (Homo sapiens, UniProt Q9UNQ0); test: Substrates of transporters of clinical importance in the absorption and disposition of drugs, BCRP
T1 sequence (Q9UNQ0 whole entry): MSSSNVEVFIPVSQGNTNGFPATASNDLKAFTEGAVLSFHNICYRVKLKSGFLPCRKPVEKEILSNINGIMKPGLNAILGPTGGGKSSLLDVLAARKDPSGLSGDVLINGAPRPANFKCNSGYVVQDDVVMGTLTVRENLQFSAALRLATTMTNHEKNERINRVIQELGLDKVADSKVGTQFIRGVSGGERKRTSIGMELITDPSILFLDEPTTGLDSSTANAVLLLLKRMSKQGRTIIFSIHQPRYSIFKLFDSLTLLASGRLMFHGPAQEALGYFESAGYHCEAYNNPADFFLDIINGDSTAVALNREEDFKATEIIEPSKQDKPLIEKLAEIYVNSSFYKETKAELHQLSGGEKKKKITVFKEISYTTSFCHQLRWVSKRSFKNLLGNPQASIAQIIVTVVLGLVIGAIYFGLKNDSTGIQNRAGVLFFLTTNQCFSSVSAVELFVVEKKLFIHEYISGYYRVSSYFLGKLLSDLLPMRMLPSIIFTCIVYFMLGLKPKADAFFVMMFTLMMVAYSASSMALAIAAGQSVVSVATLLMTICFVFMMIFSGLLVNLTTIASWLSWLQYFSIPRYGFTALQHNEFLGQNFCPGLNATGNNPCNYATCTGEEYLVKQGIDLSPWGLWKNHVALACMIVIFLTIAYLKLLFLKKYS

[2] = biological target: T2, ATP-binding cassette sub-family C member 4 (Homo sapiens, UniProt O15439); test: Substrates of transporters of clinical importance in the absorption and disposition of drugs, MRP4
T2 sequence (O15439 whole entry): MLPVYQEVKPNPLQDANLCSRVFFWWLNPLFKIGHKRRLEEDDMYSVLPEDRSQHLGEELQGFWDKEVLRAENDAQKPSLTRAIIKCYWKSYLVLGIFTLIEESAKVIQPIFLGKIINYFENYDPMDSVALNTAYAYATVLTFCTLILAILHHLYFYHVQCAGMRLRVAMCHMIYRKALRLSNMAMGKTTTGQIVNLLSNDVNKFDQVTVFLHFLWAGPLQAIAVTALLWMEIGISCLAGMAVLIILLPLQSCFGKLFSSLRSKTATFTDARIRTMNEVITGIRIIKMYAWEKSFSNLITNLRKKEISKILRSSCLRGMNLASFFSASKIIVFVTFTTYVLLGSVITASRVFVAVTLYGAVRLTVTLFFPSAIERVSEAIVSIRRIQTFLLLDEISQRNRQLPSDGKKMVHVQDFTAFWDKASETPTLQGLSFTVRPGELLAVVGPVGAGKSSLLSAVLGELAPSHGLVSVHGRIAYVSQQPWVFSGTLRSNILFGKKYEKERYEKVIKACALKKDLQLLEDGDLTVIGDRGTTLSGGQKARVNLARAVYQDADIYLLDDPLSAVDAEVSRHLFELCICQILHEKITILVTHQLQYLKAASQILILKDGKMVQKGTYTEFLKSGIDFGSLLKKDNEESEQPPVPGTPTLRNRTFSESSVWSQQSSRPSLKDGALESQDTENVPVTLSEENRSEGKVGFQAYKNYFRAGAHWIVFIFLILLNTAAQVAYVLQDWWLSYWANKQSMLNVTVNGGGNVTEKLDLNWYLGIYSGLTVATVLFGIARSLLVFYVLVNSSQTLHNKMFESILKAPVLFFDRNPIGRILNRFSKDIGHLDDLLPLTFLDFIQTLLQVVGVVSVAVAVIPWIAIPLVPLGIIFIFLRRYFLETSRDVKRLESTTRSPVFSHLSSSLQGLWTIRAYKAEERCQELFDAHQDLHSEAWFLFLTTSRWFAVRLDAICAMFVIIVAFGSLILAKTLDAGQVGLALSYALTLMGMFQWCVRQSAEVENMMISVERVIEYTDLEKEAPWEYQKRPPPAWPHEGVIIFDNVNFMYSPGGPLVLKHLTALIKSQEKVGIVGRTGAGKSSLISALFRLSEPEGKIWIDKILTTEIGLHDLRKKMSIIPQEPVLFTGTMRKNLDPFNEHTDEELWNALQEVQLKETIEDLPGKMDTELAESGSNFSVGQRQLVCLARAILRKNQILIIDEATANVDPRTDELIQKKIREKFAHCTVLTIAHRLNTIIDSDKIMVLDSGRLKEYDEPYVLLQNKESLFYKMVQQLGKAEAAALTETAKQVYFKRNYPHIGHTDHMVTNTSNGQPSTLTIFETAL

[3] = biological target: T3, Multidrug and toxin extrusion protein 2 (Homo sapiens, UniProt Q86VL8); test: Substrates of transporters of clinical importance in the absorption and disposition of drugs, MATE2-K
T3 sequence (Q86VL8 whole entry): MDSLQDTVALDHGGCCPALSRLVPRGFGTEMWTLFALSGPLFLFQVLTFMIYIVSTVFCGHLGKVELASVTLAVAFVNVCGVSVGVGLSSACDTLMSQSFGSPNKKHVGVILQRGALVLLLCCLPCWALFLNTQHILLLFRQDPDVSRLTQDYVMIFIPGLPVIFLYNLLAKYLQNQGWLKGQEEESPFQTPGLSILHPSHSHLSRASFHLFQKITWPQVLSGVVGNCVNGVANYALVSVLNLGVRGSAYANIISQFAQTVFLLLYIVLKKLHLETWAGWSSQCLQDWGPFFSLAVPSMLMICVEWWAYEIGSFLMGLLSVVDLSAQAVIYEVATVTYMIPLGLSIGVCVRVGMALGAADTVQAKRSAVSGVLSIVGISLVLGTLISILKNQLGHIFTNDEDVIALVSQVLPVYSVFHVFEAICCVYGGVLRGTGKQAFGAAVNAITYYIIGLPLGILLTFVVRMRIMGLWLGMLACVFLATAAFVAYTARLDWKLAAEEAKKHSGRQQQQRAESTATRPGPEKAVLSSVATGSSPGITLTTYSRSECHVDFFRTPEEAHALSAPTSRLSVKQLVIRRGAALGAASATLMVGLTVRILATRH

[4] = biological target: T4, Multidrug and toxin extrusion protein 1 (Homo sapiens, UniProt Q96FL8); test: Substrates of transporters of clinical importance in the absorption and disposition of drugs, MATE1
T4 sequence (Q96FL8 whole entry): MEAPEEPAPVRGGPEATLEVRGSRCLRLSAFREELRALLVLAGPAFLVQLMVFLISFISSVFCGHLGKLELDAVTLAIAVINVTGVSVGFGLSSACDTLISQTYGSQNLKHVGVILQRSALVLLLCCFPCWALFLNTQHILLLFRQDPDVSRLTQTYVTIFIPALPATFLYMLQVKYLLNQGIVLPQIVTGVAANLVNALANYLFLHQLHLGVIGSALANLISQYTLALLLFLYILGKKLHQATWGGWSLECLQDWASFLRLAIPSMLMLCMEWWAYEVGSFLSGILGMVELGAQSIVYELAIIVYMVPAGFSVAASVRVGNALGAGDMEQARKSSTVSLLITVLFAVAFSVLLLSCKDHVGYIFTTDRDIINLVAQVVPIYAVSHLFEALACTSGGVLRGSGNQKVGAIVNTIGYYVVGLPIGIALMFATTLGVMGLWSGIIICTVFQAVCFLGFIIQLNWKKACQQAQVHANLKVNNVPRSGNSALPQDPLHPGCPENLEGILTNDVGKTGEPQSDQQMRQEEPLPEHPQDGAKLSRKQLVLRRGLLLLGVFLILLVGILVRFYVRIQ

[5] = biological target: T5, Solute carrier family 22 member 2 (Homo sapiens, UniProt O15244); test: Substrates of transporters of clinical importance in the absorption and disposition of drugs, OCT2
T5 sequence (O15244 whole entry): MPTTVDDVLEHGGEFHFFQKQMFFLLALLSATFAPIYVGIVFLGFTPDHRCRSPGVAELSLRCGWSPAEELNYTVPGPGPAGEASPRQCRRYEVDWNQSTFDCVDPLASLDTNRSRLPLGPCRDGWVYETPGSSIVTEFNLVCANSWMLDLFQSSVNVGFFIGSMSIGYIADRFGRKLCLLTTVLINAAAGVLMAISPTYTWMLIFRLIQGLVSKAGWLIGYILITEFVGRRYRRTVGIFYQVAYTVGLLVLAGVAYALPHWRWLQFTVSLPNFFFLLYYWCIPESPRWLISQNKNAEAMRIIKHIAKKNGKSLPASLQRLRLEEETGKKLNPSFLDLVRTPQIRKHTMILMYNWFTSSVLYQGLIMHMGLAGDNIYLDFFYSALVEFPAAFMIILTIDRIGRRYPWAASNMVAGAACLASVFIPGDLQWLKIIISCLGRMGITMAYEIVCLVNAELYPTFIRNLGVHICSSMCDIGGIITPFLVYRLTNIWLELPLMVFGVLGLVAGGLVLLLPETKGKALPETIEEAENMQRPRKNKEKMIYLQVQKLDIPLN

[6] = biological target: T6, Solute carrier family 22 member 1 (Homo sapiens, UniProt O15245); test: Substrates of transporters of clinical importance in the absorption and disposition of drugs, OCT1
T6 sequence (O15245 whole entry): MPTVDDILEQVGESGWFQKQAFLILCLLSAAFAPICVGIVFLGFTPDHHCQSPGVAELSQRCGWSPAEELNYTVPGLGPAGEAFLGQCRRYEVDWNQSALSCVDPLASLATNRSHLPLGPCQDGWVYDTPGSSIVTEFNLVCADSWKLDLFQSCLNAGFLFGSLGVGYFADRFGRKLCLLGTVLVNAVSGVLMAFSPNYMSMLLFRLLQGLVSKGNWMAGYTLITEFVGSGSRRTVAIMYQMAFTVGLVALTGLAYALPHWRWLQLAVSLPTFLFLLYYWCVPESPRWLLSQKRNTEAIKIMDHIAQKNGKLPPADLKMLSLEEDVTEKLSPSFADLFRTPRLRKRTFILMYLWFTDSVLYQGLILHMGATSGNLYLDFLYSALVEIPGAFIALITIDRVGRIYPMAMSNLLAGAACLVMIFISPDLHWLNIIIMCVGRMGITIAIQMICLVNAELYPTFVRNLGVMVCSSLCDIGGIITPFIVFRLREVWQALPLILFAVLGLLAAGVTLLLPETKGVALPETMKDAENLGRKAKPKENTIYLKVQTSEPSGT

[7] = biological target: ATP-binding cassette sub-family C member 2 (Homo sapiens, UniProt Q92887); test: Substrates of transporters of clinical importance in the absorption and disposition of drugs, MRP2
[8] = biological target: T7, Solute carrier organic anion transporter family member 1A2 (Homo sapiens, UniProt P46721); test: Inhibitors of transporters of clinical importance in the absorption and disposition of drugs, OATP1A2
T7 sequence (P46721 whole entry): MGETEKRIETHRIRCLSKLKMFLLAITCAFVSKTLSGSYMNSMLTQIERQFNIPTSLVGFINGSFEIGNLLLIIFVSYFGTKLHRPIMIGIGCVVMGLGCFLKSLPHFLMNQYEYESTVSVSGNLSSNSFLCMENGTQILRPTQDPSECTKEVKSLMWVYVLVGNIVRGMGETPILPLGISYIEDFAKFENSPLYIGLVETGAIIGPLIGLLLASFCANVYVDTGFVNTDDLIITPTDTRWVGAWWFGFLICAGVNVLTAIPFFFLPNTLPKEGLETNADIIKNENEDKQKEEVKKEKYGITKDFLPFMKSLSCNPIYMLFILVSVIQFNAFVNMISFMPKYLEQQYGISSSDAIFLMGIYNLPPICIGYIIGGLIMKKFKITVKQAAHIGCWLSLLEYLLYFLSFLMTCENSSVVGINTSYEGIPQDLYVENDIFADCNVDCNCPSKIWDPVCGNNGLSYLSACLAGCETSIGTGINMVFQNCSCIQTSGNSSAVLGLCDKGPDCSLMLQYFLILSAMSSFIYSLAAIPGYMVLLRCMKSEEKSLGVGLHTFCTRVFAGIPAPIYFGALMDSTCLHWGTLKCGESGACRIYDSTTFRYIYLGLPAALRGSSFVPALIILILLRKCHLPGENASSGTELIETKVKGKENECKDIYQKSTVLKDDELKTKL

ATP-binding cassette sub-family C member 2, sequence (Q92887 whole entry): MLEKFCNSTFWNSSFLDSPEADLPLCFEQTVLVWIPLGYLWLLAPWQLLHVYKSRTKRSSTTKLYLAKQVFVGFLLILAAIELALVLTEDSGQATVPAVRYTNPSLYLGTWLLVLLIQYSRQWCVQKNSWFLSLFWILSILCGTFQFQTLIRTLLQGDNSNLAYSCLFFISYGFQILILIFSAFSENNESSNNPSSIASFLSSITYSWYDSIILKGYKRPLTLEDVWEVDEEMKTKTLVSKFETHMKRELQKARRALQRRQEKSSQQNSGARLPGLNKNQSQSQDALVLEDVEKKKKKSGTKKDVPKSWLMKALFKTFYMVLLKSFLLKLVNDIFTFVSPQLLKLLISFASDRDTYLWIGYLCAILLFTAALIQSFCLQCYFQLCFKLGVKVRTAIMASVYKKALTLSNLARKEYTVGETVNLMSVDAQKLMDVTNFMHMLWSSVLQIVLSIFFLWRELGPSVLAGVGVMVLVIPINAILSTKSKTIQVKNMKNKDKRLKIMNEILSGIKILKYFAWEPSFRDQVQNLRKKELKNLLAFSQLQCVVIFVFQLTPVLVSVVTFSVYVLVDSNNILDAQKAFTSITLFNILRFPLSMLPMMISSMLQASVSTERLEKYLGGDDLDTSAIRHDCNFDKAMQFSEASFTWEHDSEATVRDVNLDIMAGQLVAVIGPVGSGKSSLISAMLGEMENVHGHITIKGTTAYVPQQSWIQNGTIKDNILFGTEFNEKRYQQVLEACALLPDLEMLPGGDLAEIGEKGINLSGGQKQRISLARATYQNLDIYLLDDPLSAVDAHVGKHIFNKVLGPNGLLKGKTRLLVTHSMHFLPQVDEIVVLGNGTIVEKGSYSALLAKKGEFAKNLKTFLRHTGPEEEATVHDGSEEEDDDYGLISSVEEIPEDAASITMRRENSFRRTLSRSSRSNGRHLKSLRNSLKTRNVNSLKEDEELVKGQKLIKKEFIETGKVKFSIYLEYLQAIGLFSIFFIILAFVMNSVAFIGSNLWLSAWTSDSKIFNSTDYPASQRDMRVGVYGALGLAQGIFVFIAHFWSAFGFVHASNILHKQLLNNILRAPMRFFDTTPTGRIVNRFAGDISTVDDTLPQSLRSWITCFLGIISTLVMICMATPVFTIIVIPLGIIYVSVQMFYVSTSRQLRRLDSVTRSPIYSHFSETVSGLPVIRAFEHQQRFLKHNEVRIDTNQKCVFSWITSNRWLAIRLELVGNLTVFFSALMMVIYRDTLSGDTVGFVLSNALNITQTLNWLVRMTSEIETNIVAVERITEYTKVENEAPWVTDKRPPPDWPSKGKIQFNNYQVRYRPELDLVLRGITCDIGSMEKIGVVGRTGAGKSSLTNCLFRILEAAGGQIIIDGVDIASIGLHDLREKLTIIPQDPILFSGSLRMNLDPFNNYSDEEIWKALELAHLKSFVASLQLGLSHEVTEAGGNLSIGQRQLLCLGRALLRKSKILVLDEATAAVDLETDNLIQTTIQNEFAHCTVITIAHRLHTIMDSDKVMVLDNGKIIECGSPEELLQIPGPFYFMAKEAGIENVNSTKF

| Activity [2] | Activity [5] | Activity [6] | Activity [8] | Structure (SMILES) | Activity [1] | Activity [3] | Activity [4] | Activity [7] |
| --- | --- | --- | --- | --- | --- | --- | --- | --- |
| transporter substrate |  |  |  | CC[C@@]1(O)C(=O)OCc2c1cc1n(c2=O)Cc2cc3c(CN(C)C)c(O)ccc3nc2-1 [TOPOTECAN] | transporter substrate |  |  |  |
|  | transporter substrate | transporter substrate |  | CC[N+](CC)(CC)CC [TETRYLAMMONIUM] |  | transporter substrate | transporter substrate |  |

The next lines start with the compound.

| Structure (SMILES) | Activity [2] | Activity [5] | Activity [6] | Activity [8] | Activity [1] | Activity [3] | Activity [4] | Activity [7] |
| --- | --- | --- | --- | --- | --- | --- | --- | --- |
| C[n+]1ccccc1 |  | transporter substrate | transporter substrate |  |  | transporter substrate | transporter substrate |  |
| O=C1c2c(O)ccc(O)c2C(=O)c2c(NCCNCCO)ccc(NCCNCCO)c21 [MITOXANTRONE] |  |  |  |  | transporter substrate |  |  | transporter substrate |
| C[C@@H]1O[C@@H](O[C@H]2[C@H](Oc3cc(O)c4c(c3)O[C@H](c3ccc(O)cc3)CC4=O)O[C@H](CO)[C@@H](O)[C@@H]2O)[C@H](O)[C@H](O)[C@H]1O [NARINGIN] |  |  |  | transporter inhibitor |  |  |  |  |
| CN(C)C(=N)N=C(N)N [METFORMIN] |  | transporter substrate | transporter substrate |  |  | transporter substrate | transporter substrate |  |
